Data from US10513521B2, “Compositions and methods for inhibiting BMP” (The Brigham and Women's Hospital, Inc., priority 2014, dated 2019).
Residue numbers refer to the chain shown, from its start. Where two headings read alike, the source gives them in different places.

Key:
ALK1 [1] = target: T1, ALK1 (Bos taurus, UniProt A4FUX2); experiment: HTRF pSMAD1 cell-based ALK1 assay (BAOEC cells, BMP9 as agonist); parameters: species or system Bovine
T1 construct: The BAOEC cell line was employed for the measurement of ALK1 activity using BMP9 as the agonist; host or cells: BAOEC (bovine aortic endothelial cells)
T1 sequence (A4FUX2 23-503): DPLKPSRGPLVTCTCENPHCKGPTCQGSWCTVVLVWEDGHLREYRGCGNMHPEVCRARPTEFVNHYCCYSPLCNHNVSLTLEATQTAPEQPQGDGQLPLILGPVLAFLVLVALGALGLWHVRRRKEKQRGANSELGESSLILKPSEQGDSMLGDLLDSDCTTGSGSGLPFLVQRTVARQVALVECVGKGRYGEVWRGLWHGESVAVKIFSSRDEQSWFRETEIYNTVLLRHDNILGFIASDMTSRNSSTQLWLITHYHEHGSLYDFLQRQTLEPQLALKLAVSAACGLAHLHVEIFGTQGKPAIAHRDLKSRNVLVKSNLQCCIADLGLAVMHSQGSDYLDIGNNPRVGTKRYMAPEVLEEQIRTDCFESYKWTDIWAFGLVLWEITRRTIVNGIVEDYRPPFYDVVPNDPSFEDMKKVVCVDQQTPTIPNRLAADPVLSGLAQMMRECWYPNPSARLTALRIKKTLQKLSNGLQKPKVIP
Experimental: 2. HTRF Cell-Based ALK1 and ALK2 Assays in 384-Well Plate Format We have developed a cell based ALK1 kinase assay and a cell-based ALK2 assay. The BAOEC cell line was employed for the measurement of ALK1 activity using BMP9 as the agonist. The C2C12 cell line was selected for the measurement of ALK2 activity using BMP6 as the agonist. The kinase specificity was defined by the specific cell line and agonist. The kinase activity was determined by the status of SMD 1/5/8 phosphorylation stimulated by the agonist.
HyClone Fetal Bovine Serum was obtained from GE healthcare life sciences (Logan, Utah). BMP6 and BMP9 were purchased from R&D System. […] The compound plates and the white solid MB assay plates were purchased from Greiner Bio-one (Monroe, N.C.).
HTRF optimization experiments were performed in 384 well plate format. […] Pre-starved cells were then plated in 384 well plate in the starvation medium (containing in 0.1% FBS). After 4 hours, compounds were added to the assay plate and incubated for 30 minutes. The assay plate was then added with BMP6 for C2C12 cells or BMP9 for BAOEC cells and incubated for 30 minutes.
HTRF assay was performed to measure the status of SMAD 1 phosphorylation after stimulated with the agonist (Table 3). This HTRF phospho SMAD1 cell assay was developed and optimized for the homogenous detection of phospho SMAD 1 levels in cells. […] The plate was incubated at room temperature for overnight.

ALK2 [2] = target: T2, ALK2 (Mus musculus, UniProt P37172); experiment: HTRF pSMAD1 cell-based ALK2 assay (C2C12 cells, BMP6 as agonist)
T2 construct: The C2C12 cell line was selected for the measurement of ALK2 activity using BMP6 as the agonist; host or cells: C2C12
T2 sequence (P37172 21-509): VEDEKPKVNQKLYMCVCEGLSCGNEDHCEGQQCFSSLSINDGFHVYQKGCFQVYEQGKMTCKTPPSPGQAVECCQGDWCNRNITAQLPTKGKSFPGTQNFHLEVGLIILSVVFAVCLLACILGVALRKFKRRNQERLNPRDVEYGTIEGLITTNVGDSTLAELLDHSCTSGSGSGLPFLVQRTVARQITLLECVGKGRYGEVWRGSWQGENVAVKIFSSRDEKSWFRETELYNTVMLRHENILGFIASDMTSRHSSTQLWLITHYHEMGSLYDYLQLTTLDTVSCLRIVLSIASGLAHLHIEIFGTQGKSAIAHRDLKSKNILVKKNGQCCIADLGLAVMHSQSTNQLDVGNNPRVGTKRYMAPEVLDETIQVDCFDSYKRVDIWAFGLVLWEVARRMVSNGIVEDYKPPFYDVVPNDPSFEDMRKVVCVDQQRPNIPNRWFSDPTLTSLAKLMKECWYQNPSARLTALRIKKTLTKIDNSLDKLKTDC
Outline: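 Phospho-SMAD1 HTRF readout, detection incubated overnight at room temperature. Before that: starved cells in 0.1% FBS for 4 h, 30 min compound pretreatment, then 30 min agonist, BMP6 on C2C12 or BMP9 on BAOEC.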

BMP4 = BMP4 HTRF assay; assay type: cell-based
[3] = Cell-based assay, TGFb1 (Cell IC50)
ALK1 [4] = target: ALK1 (Homo sapiens, UniProt P37023); experiment: TR-FRET enzymatic ALK kinase assay, ALK1
Sequence of ALK1 (Homo sapiens, UniProt P37023) (P37023 22-503): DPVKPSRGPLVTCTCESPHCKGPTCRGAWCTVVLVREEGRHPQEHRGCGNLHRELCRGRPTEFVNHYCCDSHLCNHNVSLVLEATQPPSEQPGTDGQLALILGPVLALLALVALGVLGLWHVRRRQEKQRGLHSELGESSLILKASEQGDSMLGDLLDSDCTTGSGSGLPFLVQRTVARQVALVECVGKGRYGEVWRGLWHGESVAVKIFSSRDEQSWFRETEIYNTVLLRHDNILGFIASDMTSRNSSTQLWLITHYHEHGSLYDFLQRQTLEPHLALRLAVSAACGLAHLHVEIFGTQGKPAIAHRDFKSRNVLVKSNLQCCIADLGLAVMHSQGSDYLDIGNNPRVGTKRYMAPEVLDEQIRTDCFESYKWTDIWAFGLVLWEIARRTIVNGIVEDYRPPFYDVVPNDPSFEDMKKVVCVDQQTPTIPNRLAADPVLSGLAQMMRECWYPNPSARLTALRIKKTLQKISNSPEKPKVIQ
Experimental: (§1) Briefly, the ALKs enzymatic assay was initiated by dispense 2.5 μl enzyme in 1× kinase reaction buffer. The assay plate was then added with compounds followed by incubation at room temperature for 10 minutes. Then 2.5 μl/well substrate was added.

ALK2 [5] = target: T3, ALK2 (Homo sapiens, UniProt Q04771); experiment: TR-FRET enzymatic ALK kinase assay, ALK2
T3 sequence (Q04771 21-509): T2 sequence (P37172 21-509) with V1M, Q10P, I121L, E162D, S310P
Experimental: as §1

ALK3 = ALK3 (Homo sapiens, UniProt P36894); experiment: TR-FRET enzymatic ALK kinase assay, ALK3
Sequence of ALK3 (P36894 24-532): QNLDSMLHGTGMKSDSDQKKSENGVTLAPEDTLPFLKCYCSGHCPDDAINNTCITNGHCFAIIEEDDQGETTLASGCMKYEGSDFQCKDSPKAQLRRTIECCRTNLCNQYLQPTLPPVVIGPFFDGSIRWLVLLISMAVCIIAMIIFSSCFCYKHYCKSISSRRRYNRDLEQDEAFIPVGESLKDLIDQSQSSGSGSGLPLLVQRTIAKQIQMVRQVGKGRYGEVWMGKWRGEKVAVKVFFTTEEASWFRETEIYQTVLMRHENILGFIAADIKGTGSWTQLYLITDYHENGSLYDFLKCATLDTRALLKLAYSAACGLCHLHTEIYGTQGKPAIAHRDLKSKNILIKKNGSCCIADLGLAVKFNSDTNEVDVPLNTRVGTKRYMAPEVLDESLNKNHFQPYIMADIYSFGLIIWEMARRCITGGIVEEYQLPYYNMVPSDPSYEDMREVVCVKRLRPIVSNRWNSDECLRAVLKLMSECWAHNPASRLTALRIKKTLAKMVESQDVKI
Experimental: as §1

ALK4 = target: T4, ALK4 (Homo sapiens, UniProt P36896); experiment: TR-FRET enzymatic ALK kinase assay, ALK4
T4 sequence (P36896 24-505): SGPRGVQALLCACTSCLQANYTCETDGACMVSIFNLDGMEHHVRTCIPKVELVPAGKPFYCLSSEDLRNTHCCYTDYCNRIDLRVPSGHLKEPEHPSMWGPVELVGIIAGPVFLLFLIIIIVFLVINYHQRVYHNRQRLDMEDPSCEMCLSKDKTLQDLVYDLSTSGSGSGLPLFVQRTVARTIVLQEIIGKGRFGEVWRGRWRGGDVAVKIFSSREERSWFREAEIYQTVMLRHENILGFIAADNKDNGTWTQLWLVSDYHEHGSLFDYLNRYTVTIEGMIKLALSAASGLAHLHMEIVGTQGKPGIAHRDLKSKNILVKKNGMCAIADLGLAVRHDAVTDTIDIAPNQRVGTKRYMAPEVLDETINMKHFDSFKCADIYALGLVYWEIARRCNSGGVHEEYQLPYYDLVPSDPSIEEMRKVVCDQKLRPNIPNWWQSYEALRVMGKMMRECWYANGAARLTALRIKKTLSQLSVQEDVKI
Experimental: as §1

ALK5 = target: T5, ALK5 (Homo sapiens, UniProt P36897); experiment: TR-FRET enzymatic ALK kinase assay, ALK5
T5 sequence (P36897 34-503): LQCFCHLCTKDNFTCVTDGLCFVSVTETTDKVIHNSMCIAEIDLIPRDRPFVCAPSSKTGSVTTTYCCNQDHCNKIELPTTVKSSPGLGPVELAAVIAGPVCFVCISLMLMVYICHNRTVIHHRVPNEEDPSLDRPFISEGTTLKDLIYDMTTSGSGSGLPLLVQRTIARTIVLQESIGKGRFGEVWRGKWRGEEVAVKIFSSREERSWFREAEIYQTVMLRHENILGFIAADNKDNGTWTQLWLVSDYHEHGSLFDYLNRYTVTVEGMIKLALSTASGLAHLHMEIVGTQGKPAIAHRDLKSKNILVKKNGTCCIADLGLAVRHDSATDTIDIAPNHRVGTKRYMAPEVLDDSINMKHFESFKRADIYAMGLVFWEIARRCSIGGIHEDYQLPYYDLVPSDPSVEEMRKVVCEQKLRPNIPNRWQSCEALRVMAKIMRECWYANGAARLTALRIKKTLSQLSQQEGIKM
Experimental: Six ALK kinase enzyme assays were developed for determination of compound activities on ALK1, ALK2, ALK3, ALK4, ALK5 and ALK6.
as §1

ALK6 = ALK6 (Homo sapiens, UniProt O00238); experiment: TR-FRET enzymatic ALK kinase assay, ALK6
Sequence of ALK6 (O00238 14-502): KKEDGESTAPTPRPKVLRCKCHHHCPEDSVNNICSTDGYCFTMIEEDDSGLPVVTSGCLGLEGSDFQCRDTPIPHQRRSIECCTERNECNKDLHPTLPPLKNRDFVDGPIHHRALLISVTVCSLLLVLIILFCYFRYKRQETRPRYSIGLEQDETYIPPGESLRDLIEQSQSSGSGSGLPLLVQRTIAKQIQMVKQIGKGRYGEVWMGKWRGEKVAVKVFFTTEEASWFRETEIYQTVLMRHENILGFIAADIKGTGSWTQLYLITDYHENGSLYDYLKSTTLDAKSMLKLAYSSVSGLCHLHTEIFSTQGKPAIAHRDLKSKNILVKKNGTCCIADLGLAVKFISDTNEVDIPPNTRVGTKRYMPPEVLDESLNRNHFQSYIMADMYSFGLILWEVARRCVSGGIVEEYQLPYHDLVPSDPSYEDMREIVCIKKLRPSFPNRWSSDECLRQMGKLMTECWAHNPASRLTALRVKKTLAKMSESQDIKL
Experimental: as §1

IC50 (ALK1 [1]): 33 nM
IC50 (ALK2 [2]; HTRF assay, BMP6 as agonist, C2C12 cells, read-out: BMP6 HTRF): 47 nM
IC50 (ALK2 [2]; cell-based assay, BMP6, read-out: Cell IC50 BMP6): 2 nM
IC50 (BMP4): 820 nM
IC50 [3]: 243 nM
IC50 (ALK1 [4]): 4 nM
IC50 (ALK2 [5]): 9.7 nM
IC50 (ALK3): 34 nM
IC50 (ALK4): 1360 nM
IC50 (ALK5): 4660 nM
IC50 (ALK6): 647 nM
Structure (SMILES): C[C@@H]1CNC[C@H](C)N1c1ccc(-c2cnc3c(-c4ccc(CO)c5ccccc45)cnn3c2)cc1 [Compound 22, (4-(6-(4-((2R,6S)-2,6-dimethylpiperazin-1-yl)phenyl)pyrazolo[1,5-a]pyrimidin-3-yl)naphthalen-1-yl)methanol]
